The source made the active and inactive calls. The rule behind the calls is not given here.
Experiments:
[1] = Drug concentration in SCID mouse tumor xenografted with human MV4-11 cells at 50 mg/kg, iv measured after 6 hrs by LC-MS/MS method; assay type: ADME, organism-based, Neoplasm; conditions: read-out: Ct
[2] = molecular target: T1, von Hippel-Lindau disease tumor suppressor/SWI/SNF-related matrix-associated actin-dependent regulator of chromatin subfamily A member 2 (Homo sapiens, UniProt P51531+P40337); experiment: In vivo PROTAC activity at VHL/SMARCA2 in SCID mouse xenografted with human NCI-H838 cells assessed as reduction of SMARCA2 level in tumor at 50 mg/kg, iv administered as single dose measured after 24 hrs by Western blotting analysis; assay type: functional, organism-based; set-up: scale not given: the % may be the effect or the level left
Target sequence in this assay (P40337 whole entry, looked up, the tested form may be a part): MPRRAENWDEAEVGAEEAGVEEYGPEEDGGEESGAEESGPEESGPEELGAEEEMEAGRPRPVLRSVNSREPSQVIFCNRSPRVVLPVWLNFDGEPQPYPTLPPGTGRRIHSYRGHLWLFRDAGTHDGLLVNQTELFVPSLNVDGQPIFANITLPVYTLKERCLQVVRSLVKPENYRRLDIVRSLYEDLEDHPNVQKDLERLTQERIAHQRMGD
Target sequence in this assay (P51531 whole entry, looked up, the tested form may be a part): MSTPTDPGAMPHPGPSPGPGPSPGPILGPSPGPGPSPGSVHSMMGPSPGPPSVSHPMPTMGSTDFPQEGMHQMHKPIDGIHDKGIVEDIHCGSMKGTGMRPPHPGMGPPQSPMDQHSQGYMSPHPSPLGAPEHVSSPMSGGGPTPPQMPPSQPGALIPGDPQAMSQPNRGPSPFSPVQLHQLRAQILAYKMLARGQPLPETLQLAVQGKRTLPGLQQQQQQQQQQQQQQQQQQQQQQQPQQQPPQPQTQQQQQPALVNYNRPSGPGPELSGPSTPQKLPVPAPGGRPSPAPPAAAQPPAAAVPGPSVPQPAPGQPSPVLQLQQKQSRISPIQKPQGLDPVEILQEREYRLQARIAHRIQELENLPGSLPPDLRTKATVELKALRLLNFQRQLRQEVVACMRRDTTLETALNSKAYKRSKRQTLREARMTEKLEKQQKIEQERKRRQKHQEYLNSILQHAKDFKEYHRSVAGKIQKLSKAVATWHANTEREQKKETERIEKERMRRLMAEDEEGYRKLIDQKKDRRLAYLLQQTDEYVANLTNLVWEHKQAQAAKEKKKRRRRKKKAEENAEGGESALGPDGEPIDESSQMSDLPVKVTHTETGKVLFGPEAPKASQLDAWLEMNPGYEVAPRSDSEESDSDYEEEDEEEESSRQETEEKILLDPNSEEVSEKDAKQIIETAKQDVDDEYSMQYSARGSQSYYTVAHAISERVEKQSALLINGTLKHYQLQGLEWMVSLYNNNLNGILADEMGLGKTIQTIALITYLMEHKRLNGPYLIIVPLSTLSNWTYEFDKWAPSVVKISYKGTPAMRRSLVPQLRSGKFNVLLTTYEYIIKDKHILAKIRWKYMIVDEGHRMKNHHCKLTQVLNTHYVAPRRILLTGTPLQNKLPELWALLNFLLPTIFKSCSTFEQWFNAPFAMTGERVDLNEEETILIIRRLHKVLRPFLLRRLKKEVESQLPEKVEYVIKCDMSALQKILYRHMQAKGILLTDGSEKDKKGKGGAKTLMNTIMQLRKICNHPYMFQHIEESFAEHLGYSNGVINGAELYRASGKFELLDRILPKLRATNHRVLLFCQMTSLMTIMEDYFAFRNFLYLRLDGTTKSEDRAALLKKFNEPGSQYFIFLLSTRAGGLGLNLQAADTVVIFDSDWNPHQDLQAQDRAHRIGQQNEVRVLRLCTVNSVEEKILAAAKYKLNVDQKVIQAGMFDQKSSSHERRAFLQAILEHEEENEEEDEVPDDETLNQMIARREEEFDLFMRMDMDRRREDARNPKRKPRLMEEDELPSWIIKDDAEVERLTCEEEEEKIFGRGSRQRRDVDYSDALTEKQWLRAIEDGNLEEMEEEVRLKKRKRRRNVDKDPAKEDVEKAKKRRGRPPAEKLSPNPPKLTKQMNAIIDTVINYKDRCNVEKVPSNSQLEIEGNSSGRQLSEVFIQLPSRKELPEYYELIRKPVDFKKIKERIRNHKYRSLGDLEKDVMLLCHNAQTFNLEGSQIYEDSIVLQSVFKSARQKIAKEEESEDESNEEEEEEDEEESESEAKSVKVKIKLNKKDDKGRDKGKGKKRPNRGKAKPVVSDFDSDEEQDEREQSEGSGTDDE

[3] = molecular target: T1, von Hippel-Lindau disease tumor suppressor/SWI/SNF-related matrix-associated actin-dependent regulator of chromatin subfamily A member 2; experiment: PROTAC activity at VHL/C-terminal HiBiT fused SMARCA2 in human HeLa cells assessed as induction of SMARCA2 degradation by measuring maximal efficacy incubated for 24 hrs by Nano-Glo HiBiT analysis relative to control; assay type: cell-based
Target sequence in this assay (P40337 whole entry, looked up, the tested form may be a part): as the sequence (P40337 whole entry, looked up, the tested form may be a part) above
Target sequence in this assay (P51531 whole entry, looked up, the tested form may be a part): as the sequence (P51531 whole entry, looked up, the tested form may be a part) above

[4] = molecular target: T1, von Hippel-Lindau disease tumor suppressor/SWI/SNF-related matrix-associated actin-dependent regulator of chromatin subfamily A member 2; experiment: In vivo PROTAC activity at VHL/SMARCA2 in SCID mouse xenografted with human MV4-11 cells assessed as remaining activity in tumor at 50 mg/kg, iv administered as single dose measured after 48 hrs by Western blotting analysis (reference value: 100 +/- 15 % ); assay type: ADME, organism-based
[5] = molecular target: T2, von Hippel-Lindau disease tumor suppressor/SWI/SNF-related matrix-associated actin-dependent regulator of chromatin subfamily A member 4 (Homo sapiens, UniProt P51532+P40337); experiment: PROTAC activity at VHL/C-terminal HiBiT fused SMARCA4 in human HeLa cells assessed as induction of SMARCA4 degradation incubated for 1 hr by Nano-Glo HiBiT analysis; assay type: cell-based
[6] = molecular target: T2, von Hippel-Lindau disease tumor suppressor/SWI/SNF-related matrix-associated actin-dependent regulator of chromatin subfamily A member 4; experiment: PROTAC activity at VHL/C-terminal HiBiT fused SMARCA4 in human HeLa cells assessed as induction of SMARCA4 degradation by measuring maximal efficacy incubated for 24 hrs by Nano-Glo HiBiT analysis relative to control; assay type: cell-based
Target sequence in this assay (P40337 whole entry, looked up, the tested form may be a part): as the sequence (P40337 whole entry, looked up, the tested form may be a part) above
Target sequence in this assay (P51532 whole entry, looked up, the tested form may be a part): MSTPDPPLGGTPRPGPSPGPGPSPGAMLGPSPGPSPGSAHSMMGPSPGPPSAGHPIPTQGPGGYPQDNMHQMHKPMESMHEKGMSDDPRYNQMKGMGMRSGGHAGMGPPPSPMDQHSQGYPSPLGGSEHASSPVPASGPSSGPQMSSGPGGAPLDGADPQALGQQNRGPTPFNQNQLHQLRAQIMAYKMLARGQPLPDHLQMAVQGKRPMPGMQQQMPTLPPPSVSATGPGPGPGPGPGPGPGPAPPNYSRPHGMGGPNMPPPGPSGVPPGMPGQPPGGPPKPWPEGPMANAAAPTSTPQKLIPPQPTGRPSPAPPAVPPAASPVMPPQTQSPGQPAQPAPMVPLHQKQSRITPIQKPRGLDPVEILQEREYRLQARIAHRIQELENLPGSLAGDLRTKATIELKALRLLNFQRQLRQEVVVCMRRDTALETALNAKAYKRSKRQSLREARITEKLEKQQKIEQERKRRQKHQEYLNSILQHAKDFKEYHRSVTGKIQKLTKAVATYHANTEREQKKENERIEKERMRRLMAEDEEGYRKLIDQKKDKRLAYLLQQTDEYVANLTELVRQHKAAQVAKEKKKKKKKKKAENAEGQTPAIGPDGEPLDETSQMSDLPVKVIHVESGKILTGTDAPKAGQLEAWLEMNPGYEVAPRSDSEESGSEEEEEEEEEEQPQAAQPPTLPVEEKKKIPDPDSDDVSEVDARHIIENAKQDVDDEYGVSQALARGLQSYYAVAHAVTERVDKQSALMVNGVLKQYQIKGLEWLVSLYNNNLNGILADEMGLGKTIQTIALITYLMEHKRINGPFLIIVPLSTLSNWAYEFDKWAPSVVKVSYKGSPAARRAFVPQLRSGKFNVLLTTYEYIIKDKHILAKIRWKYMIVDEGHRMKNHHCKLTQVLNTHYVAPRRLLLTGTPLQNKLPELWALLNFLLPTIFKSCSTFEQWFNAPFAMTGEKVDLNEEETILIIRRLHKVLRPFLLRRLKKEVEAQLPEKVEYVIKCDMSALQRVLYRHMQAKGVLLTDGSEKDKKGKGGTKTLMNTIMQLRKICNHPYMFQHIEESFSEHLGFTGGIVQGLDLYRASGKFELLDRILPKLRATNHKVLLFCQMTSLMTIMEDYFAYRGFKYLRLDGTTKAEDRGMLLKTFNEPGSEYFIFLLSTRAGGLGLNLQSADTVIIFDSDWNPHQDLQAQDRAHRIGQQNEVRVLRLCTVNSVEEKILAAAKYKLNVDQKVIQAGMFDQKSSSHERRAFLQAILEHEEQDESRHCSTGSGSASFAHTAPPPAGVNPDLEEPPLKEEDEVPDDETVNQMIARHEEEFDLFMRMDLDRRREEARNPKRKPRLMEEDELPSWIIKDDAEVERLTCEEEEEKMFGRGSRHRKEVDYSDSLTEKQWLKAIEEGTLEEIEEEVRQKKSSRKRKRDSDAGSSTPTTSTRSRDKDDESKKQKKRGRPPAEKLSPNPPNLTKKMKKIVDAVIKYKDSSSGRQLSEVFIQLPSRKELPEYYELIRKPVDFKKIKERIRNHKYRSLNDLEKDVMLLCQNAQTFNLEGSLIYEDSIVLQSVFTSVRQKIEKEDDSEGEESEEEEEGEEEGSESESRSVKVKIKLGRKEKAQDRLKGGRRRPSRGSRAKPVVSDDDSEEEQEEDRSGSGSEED

[7] = molecular target: T1, von Hippel-Lindau disease tumor suppressor/SWI/SNF-related matrix-associated actin-dependent regulator of chromatin subfamily A member 2; experiment: PROTAC activity at VHL/C-terminal HiBiT fused SMARCA2 in human HeLa cells assessed as induction of SMARCA2 degradation by measuring maximal efficacy at 0.0001 to 1 uM incubated for 48 hrs by Nano-Glo HiBiT analysis relative to control; assay type: cell-based; conditions: dose 0.0001-1 µM
Target sequence in this assay (P40337 whole entry, looked up, the tested form may be a part): as the sequence (P40337 whole entry, looked up, the tested form may be a part) above
Target sequence in this assay (P51531 whole entry, looked up, the tested form may be a part): as the sequence (P51531 whole entry, looked up, the tested form may be a part) above

A549 [8] = experiment: Antiproliferative activity against SMARCA4-deficient human A549 cells assessed as cell growth inhibition measured after 7 days by WST-8 assay; assay type: functional; conditions: A549, 168 h, time 7 day
[9] = Drug concentration in SCID mouse plasma xenografted with human MV4-11 cells at 50 mg/kg, iv measured after 2 hrs by LC-MS/MS method; assay type: ADME, organism-based
NCI-H1944 = experiment: Antiproliferative activity against SMARCA4-deficient human NCI-H1944 cells assessed as cell growth inhibition by measuring maximal efficacy measured after 7 days by WST-8 assay relative to control; assay type: functional; conditions: time 7 day
[10] = molecular target: T1, von Hippel-Lindau disease tumor suppressor/SWI/SNF-related matrix-associated actin-dependent regulator of chromatin subfamily A member 2; experiment: PROTAC activity at VHL/wild-type SMARCA2 in human SK-MEL-28 cells assessed as induction of SMARCA2 degradation at 0.001 to 1000 nM incubated for 24 hrs by Western blotting analysis relative to control; assay type: cell-based; conditions: dose 0.001-1000 nM
Target sequence in this assay (P40337 whole entry, looked up, the tested form may be a part): as the sequence (P40337 whole entry, looked up, the tested form may be a part) above
Target sequence in this assay (P51531 whole entry, looked up, the tested form may be a part): as the sequence (P51531 whole entry, looked up, the tested form may be a part) above

[11] = molecular target: T1, von Hippel-Lindau disease tumor suppressor/SWI/SNF-related matrix-associated actin-dependent regulator of chromatin subfamily A member 2; experiment: PROTAC activity at VHL/C-terminal HiBiT fused SMARCA2 in human HeLa cells assessed as induction of SMARCA2 degradation pre-treated with 2-(6-amino-5-(1-methyl-1H-pyrazol-4-yl)pyridazin-3-yl)phenol for 2 hrs followed by compound treatment for 24 hrs by Nano-Glo HiBiT analysis; assay type: cell-based
Target sequence in this assay (P40337 whole entry, looked up, the tested form may be a part): as the sequence (P40337 whole entry, looked up, the tested form may be a part) above
Target sequence in this assay (P51531 whole entry, looked up, the tested form may be a part): as the sequence (P51531 whole entry, looked up, the tested form may be a part) above

[12] = molecular target: T1, von Hippel-Lindau disease tumor suppressor/SWI/SNF-related matrix-associated actin-dependent regulator of chromatin subfamily A member 2; experiment: PROTAC activity at VHL/C-terminal HiBiT fused SMARCA2 in human HeLa cells assessed as induction of SMARCA2 degradation incubated for 1 to 48 hrs by Nano-Glo HiBiT analysis; assay type: cell-based; conditions: dose 0.001-10 µM, time 1-48 hrs
Target sequence in this assay (P40337 whole entry, looked up, the tested form may be a part): as the sequence (P40337 whole entry, looked up, the tested form may be a part) above
Target sequence in this assay (P51531 whole entry, looked up, the tested form may be a part): as the sequence (P51531 whole entry, looked up, the tested form may be a part) above

[13] = molecular target: T1, von Hippel-Lindau disease tumor suppressor/SWI/SNF-related matrix-associated actin-dependent regulator of chromatin subfamily A member 2; experiment: PROTAC activity at VHL/wild-type SMARCA2 in human SK-MEL-28 cells assessed as induction of SMARCA2 degradation incubated for 24 hrs by Western blotting analysis; assay type: cell-based
[14] = molecular target: T1, von Hippel-Lindau disease tumor suppressor/SWI/SNF-related matrix-associated actin-dependent regulator of chromatin subfamily A member 2; experiment: PROTAC activity at VHL/wild-type SMARCA2 in human NCI-H838 cells assessed as induction of SMARCA2 degradation at 0.001 to 1000 nM incubated for 24 hrs by Western blotting analysis relative to control; assay type: cell-based; conditions: dose 0.001-1000 nM
A549 [15] = experiment: Antiproliferative activity against SMARCA4-deficient human A549 cells assessed as cell growth inhibition by measuring maximal efficacy measured after 7 days by WST-8 assay relative to control; assay type: functional; conditions: time 7 day
[16] = molecular target: T2, von Hippel-Lindau disease tumor suppressor/SWI/SNF-related matrix-associated actin-dependent regulator of chromatin subfamily A member 4; experiment: PROTAC activity at VHL/C-terminal HiBiT fused SMARCA4 in human HeLa cells assessed as induction of SMARCA4 degradation by measuring maximal efficacy at 0.001 to 10 uM incubated for 24 hrs by Nano-Glo HiBiT analysis relative to control; assay type: cell-based; conditions: dose 0.001-10 µM
Target sequence in this assay (P40337 whole entry, looked up, the tested form may be a part): as the sequence (P40337 whole entry, looked up, the tested form may be a part) above
Target sequence in this assay (P51532 whole entry, looked up, the tested form may be a part): as the sequence (P51532 whole entry, looked up, the tested form may be a part) above

NCI-H838 = experiment: Antitumor activity against SMARCA4-deficient human NCI-H838 cells xenografted in SCID mouse assessed as tumor growth inhibition at 50 mg/kg, iv administered twice a week measured after 3 weeks relative to control; assay type: functional; conditions: NCI-H838, 504 h, read-out: TGI
NCI-H647 = experiment: Antiproliferative activity against human NCI-H647 cells expressing wild-type SMARCA2 assessed as cell growth inhibition measured after 7 days by WST-8 assay; assay type: functional; conditions: NCI-H647, 168 h, time 7 day
[17] = molecular target: T1, von Hippel-Lindau disease tumor suppressor/SWI/SNF-related matrix-associated actin-dependent regulator of chromatin subfamily A member 2; experiment: In vivo PROTAC activity at VHL/SMARCA2 in SCID mouse xenografted with human NCI-H838 cells assessed as remaining activity in tumor at 50 mg/kg, iv administered as single dose measured after 3 hrs by Western blotting analysis (reference value: 100 +/- 7% ); assay type: functional, organism-based
SK-MEL-28 = experiment: Antiproliferative activity against human SK-MEL-28 cells expressing wild-type SMARCA2 assessed as cell growth inhibition measured after 7 days by WST-8 assay; assay type: functional; conditions: SK-MEL-28, 168 h, time 7 day
[18] = molecular target: T1, von Hippel-Lindau disease tumor suppressor/SWI/SNF-related matrix-associated actin-dependent regulator of chromatin subfamily A member 2; experiment: In vivo PROTAC activity at VHL/SMARCA2 in SCID mouse xenografted with human MV4-11 cells assessed as remaining activity in tumor at 50 mg/kg, iv administered as single dose measured after 96 hrs by Western blotting analysis (reference value: 100 +/- 15 % ); assay type: ADME, organism-based
[19] = molecular target: T2, von Hippel-Lindau disease tumor suppressor/SWI/SNF-related matrix-associated actin-dependent regulator of chromatin subfamily A member 4; experiment: In vivo PROTAC activity at VHL/SMARCA4 in SCID mouse xenografted with human MV4-11 cells assessed as reduction of SMARCA4 level in tumor at 50 mg/kg, iv administered as single dose measured after 48 hrs by Western blotting analysis; assay type: ADME, organism-based; set-up: scale not given: the % may be the effect or the level left
[20] = molecular target: T2, von Hippel-Lindau disease tumor suppressor/SWI/SNF-related matrix-associated actin-dependent regulator of chromatin subfamily A member 4; experiment: In vivo PROTAC activity at VHL/SMARCA4 in SCID mouse xenografted with human MV4-11 cells assessed as remaining activity in tumor at 50 mg/kg, iv administered as single dose measured after 96 hrs by Western blotting analysis (reference value: 100 +/- 15 % ); assay type: ADME, organism-based
[21] = molecular target: T2, von Hippel-Lindau disease tumor suppressor/SWI/SNF-related matrix-associated actin-dependent regulator of chromatin subfamily A member 4; experiment: PROTAC activity at VHL/C-terminal HiBiT fused SMARCA4 in human HeLa cells assessed as induction of SMARCA4 degradation by measuring maximal efficacy at 0.001 to 10 uM incubated for 6 hrs by Nano-Glo HiBiT analysis relative to control; assay type: cell-based; conditions: dose 0.001-10 µM
Target sequence in this assay (P40337 whole entry, looked up, the tested form may be a part): as the sequence (P40337 whole entry, looked up, the tested form may be a part) above
Target sequence in this assay (P51532 whole entry, looked up, the tested form may be a part): as the sequence (P51532 whole entry, looked up, the tested form may be a part) above

Cc1ncsc1-c1ccc([C@H](C)NC(=O)[C@@H]2C[C@@H](O)CN2C(=O)[C@@H](NC(=O)[C@H]2CC[C@H](CN3CC4(CCC(n5cc(-c6cc(-c7ccccc7O)nnc6N)cn5)CC4)C3)CC2)C(C)(C)C)cc1
concentration at 6 h [1]: 1100 ng/g | Activity [2]: 91% | Emax [3]: 91% | Activity [4]: 17% | DC50 [5]: > 3.3 µM | Emax [6]: 44% | Emax [7]: 94% | GI50 (A549 [8]): 0.042 µM | concentration at 2 h [9]: 2730 ng/mL | Imax (NCI-H1944): 88% | Emax [10]: 98% | Activity [11]: inactive | Activity [12]: Dose-Dependent Effect | DC50 [13]: 0.035 µM | Emax [14]: 90% | Imax (A549 [15]): 51% | Emax [16]: 57% | inhibition in vivo at 50 mg/kg (NCI-H838): 81% | GI50 (NCI-H647): 3.1 µM | Activity [17]: 30% | GI50 (SK-MEL-28): > 10 µM | Activity [18]: 26% | Activity [19]: 13% | Activity [20]: 84% | Emax [21]: 49%

— ChEMBL document CHEMBL5325488, “Discovery of SMD-3040 as a Potent and Selective SMARCA2 PROTAC Degrader with Strong in vivo Antitumor Activity” (J Med Chem, 2023)
